Assay results: paper PMC3237899 (2011)

What was measured:
Jak2 wild type = Jak2 wild type (Homo sapiens, UniProt O60674); test: in vitro kinase assay with recombinant protein, autophosphorylation; type: biochemical
Jak2-V617F = Jak2-V617F (Homo sapiens, UniProt O60674, V617F); test: as above; type: biochemical
Sequence of Jak2-V617F (O60674 545-1132 V617F limits assumed): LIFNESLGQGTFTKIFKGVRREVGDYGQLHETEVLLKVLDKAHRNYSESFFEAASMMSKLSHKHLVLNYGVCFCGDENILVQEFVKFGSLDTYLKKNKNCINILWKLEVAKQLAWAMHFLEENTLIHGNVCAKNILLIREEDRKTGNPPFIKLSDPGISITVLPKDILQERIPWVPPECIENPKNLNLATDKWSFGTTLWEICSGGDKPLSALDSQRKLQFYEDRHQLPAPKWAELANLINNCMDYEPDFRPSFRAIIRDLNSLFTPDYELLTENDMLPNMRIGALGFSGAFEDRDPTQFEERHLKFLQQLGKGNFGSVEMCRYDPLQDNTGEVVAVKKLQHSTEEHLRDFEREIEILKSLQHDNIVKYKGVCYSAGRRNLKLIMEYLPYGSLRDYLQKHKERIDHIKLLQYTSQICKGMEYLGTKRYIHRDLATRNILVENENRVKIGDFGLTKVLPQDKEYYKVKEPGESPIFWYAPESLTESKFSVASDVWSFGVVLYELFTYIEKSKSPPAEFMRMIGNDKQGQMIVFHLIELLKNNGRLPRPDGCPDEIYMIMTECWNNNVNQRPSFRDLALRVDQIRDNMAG

Sequence of Jak2 wild type (O60674 whole entry): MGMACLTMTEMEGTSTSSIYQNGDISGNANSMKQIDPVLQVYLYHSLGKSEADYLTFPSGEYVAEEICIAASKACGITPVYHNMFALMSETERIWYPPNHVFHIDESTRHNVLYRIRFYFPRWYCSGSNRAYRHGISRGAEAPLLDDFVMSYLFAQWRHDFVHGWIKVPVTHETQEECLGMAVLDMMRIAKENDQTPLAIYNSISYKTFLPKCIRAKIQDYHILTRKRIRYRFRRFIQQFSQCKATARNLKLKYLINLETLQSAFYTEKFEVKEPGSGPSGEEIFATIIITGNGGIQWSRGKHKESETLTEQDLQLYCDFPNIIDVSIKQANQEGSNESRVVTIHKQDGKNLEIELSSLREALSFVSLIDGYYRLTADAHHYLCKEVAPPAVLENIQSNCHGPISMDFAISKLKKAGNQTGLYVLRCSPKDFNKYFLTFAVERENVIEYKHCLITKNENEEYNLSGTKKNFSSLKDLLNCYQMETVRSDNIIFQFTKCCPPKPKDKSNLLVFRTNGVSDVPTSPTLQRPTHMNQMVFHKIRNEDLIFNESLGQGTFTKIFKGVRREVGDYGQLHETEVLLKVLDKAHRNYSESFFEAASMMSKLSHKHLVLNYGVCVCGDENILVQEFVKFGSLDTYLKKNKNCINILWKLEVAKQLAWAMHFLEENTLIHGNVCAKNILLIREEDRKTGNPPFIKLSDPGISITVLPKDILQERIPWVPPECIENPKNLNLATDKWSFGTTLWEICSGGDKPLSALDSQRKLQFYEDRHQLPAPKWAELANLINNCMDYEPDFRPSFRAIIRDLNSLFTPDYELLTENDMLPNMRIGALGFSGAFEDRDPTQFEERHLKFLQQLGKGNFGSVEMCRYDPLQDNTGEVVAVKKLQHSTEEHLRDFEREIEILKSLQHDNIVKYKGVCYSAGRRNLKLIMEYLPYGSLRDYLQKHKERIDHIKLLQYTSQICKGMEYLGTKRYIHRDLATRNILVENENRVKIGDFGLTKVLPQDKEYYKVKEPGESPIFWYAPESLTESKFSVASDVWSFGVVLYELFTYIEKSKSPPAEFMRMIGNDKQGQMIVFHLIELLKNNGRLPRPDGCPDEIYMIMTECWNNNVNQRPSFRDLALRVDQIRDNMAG

## CN(C)c1ccc(C(O)c2cc3ccccc3s2)cc1 (centres unmarked) [A46, 1-benzothiophen-2-yl-(4-dimethylaminophenyl)methanol]
Jak2 wild type
  IC50: ~1000 nM
Jak2-V617F
  IC50: ~100 nM
